# Results from US20260034253A1, “NECTIN-4 MINIPROTEIN CONJUGATES” (Aktis Oncology, Inc., priority 2022, published 2026).
# Bridge positions count the residues as written; N and C are the ends. Primed or numbered codes have the meaning given here. * marks the point of attachment. DOTA‑PEG4 = alpha-(1,4,7,10-tetraazacyclododecan-1,4,7,10-tetraacetate)-4(ethylene glycol); DOTA = O=C(O)CN1CCN(CC(=O)O)CCN(CC(=O)*)CCN(CC(=O)O)CC1; PEG4′ = polyethylene glycol (PEG4) linker
# T1: Nectin-4 on HT1376 urothelial cancer cells (UniProt Q96NY8 32-510)
# T1 construct: whole, on cells; also called HT1376 cells
# T1 sequence (looked up): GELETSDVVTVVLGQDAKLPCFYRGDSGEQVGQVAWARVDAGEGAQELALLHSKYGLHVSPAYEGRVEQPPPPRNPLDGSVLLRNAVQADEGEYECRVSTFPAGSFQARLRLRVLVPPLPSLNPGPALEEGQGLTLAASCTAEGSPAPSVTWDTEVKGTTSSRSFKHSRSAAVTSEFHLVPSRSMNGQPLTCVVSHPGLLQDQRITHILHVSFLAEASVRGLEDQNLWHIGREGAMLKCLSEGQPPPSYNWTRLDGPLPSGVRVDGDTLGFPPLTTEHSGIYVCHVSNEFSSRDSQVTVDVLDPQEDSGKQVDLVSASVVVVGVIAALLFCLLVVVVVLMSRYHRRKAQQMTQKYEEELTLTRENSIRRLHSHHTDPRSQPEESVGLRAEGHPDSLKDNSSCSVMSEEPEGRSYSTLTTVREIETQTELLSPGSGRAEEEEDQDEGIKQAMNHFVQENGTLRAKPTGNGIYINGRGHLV
# Assays:
# [1] = Plasma pharmacokinetic analysis in Sprague Dawley rats; type: in vivo; settings: rat, bolus intravenous injection, read-out: PK DATA (t½ - min)
# Experimental: Nine blood collection timepoints are taken from 2-24 hours, processed to plasma with K2EDTA, and are frozen for subsequent bioanalysis. Plasma miniprotein concentrations are measured by LC-MS/MS. Plasma FITC-sinistrin is measured fluorometrically. […] Finally, non-compartmental analysis is performed to estimate plasma pharmacokinetic parameters.
# Exemplary pK data for exemplary Nectin-4 miniprotein monomers were tested in vivo (t1/2 mins), showing an average pK for these exemplary compounds.
# [2] = test system: HT1376 urothelial cancer cells; experiment: In vitro cell cytotoxicity assay of actinium-225 radioconjugates (CellTiter-Glo); type: cell-based; settings: compound radiolabeled with 225Ac, 24 hours treatment, 4-5 days regrowth, cell viability
# Experimental: Cytotoxicity to actinium-225 radioconjugates was assessed in HT1376 urothelial cancer cells. Cells were seeded in 96-well plates at densities of 250 to 1000 cells per well two days prior to treatment. On the day of treatment actinium-225 radioconjugates were diluted in culture medium to concentrations ranging from 0.0001 to 100 uCi/mL and treatment solutions were incubated with cells for 24 hours. At the end of the treatment period, the treatment solution was removed, and fresh culture medium was replenished for the regrowth period of the assay that lasted 4-5 days. At the end of the regrowth period the culture medium was removed and viability was assessed by CellTiter-Glo (Promega, Waltham MA) luminescent assay and the plates were read on a Perkin Elmer Enspire multimode plate reader. Data were normalized to treatment controls and plotted as non-linear sigmoidal dose response curves to determine the effective concentration for 50% reduction in cell viability.
# [3] = Thermal stability at 75° C. in 0.9% saline by HPLC; type: physicochemical; settings: 1 mg/mL, 0.9% Saline solution, 60 minutes, FIG. 7
# Experimental: The thermal stability of an exemplary compound, C215, was analyzed at a concentration of 1 mg/mL at 75° C. in 0.9% Saline solution. A heating plate was set to 75° C. and the sample was heated for a period of one hour. The vial was shaken prior to collecting […] at 5, 10, 15, 30 and 60 minute time intervals. The % parent remaining was analyzed by HPLC using the following system and method: Analytical Agilent 1100 HPLC system using a 4.6×250 mm, 300 Angstrom, BEH300, […], Xbridge C18 column at […]. The solvent system consisted of A=Water+0.1% TFA, B=Acetonitrile+0.1% TFA. The gradient consisted of 5% to 70% B over 15 minutes, then the column was washed and equilibrated to initial conditions.
# [4] = previously published, Challita-Eid et al Cancer Res (2016); cited from earlier work
# [5] = target: T1, Nectin-4 on HT1376 urothelial cancer …; experiment: saturation radioligand binding (Lu-177) on HT1376 cells, 4 C, gamma counting
# Experimental: Radioligand binding was performed in HT1376 urothelial cancer cells by method of saturation. Cells were seeded at 20,000 cells per well in 96-well format 48 hours prior to assay. Lutetium-177-labeled radioconjugates of C215 and C117 were incubated with cells at 4 deg C. for 1 h at various increasing concentrations of radioligand. At the end of incubation cells were washed three times with PBS and radioactivity was quantified by gamma counting as shown in Table 3.
molecule,measurement,setting,value
CC[C@H](C)[C@@H]1NC(=O)[C@H](CC(=O)O)NC(=O)CNC(=O)CNC(=O)[C@H](CCCNC(=N)N)NC(=O)[C@H](CC(C)C)NC(=O)[C@H](CCCNC(=N)N)NC(=O)[C@H](CCCCN)NC(=O)[C@H](CC(C)C)NC(=O)[C@H](C)NC(=O)[C@H]([C@@H](C)O)NC(=O)[C@H](Cc2ccccc2)NC(=O)[C@H](Cc2ccccc2)NC(=O)[C@H](CCC(=O)O)NC(=O)[C@H](CCC(=O)O)NC(=O)[C@H](CC(=O)O)NC(=O)[C@H](Cc2ccc(O)cc2)NC(=O)[C@H](CCC(=O)O)NC(=O)[C@@H](NC(=O)CCOCCOCCOCCOCCNC(=O)CN2CCN(CC(=O)O)CCN(CC(=O)O)CCN(CC(=O)O)CC2)CSSC[C@@H]2NC(=O)[C@H](CC(C)C)NC(=O)[C@H](CCCCNC(C)=O)NC(=O)[C@@H]3CCCN3C(=O)[C@H](C(C)C)NC(=O)[C@H](CCCCNC(C)=O)NC(=O)[C@H](CCCCNC(C)=O)NC(=O)[C@H](Cc3ccccc3)NC(=O)[C@H](CCCCNC(C)=O)NC(=O)[C@H](CCCCNC(C)=O)NC(=O)[C@H](CCCCNC(C)=O)NC(=O)[C@H]([C@@H](C)CC)NC(=O)[C@H](Cc3ccc(O)cc3)NC(=O)[C@H](Cc3ccc(O)cc3)NC(=O)[C@H](CSSC[C@@H](C(N)=O)NC(=O)CNC(=O)[C@H](CC(C)C)NC(=O)[C@H](CCCCN)NC(=O)[C@H](CC(=O)O)NC(=O)[C@H](CC(C)C)NC(=O)[C@H]([C@@H](C)CC)NC(=O)[C@H](CCC(=O)O)NC(=O)[C@H](CCC(=O)O)NC(=O)[C@H]([C@@H](C)CC)NC2=O)NC1=O [Compound C216],half-life,[1],31.4 min
CC[C@H](C)[C@@H]1NC(=O)[C@H](CC(=O)O)NC(=O)CNC(=O)CNC(=O)[C@H](CCCNC(N)=O)NC(=O)[C@H](CC(C)C)NC(=O)[C@H](CCCNC(N)=O)NC(=O)[C@H](CCCCNC(C)=O)NC(=O)[C@H](CC(C)C)NC(=O)[C@H](C)NC(=O)[C@H]([C@@H](C)O)NC(=O)[C@H](Cc2ccccc2)NC(=O)[C@H](Cc2ccccc2)NC(=O)[C@H](CCC(=O)O)NC(=O)[C@H](CCC(=O)O)NC(=O)[C@H](CC(=O)O)NC(=O)[C@H](Cc2ccc(O)cc2)NC(=O)[C@H](CCC(=O)O)NC(=O)[C@@H](NC(=O)CCOCCOCCOCCOCCNC(=O)CN2CCN(CC(=O)O)CCN(CC(=O)O)CCN(CC(=O)O)CC2)CSSC[C@@H]2NC(=O)[C@H](CC(C)C)NC(=O)[C@H](CCCCN)NC(=O)[C@@H]3CCCN3C(=O)[C@H](C(C)C)NC(=O)[C@H](CCCCN)NC(=O)[C@H](CCCCN)NC(=O)[C@H](Cc3ccccc3)NC(=O)[C@H](CCCCN)NC(=O)[C@H](CCCCN)NC(=O)[C@H](CCCCN)NC(=O)[C@H]([C@@H](C)CC)NC(=O)[C@H](Cc3ccc(O)cc3)NC(=O)[C@H](Cc3ccc(O)cc3)NC(=O)[C@H](CSSC[C@@H](C(N)=O)NC(=O)CNC(=O)[C@H](CC(C)C)NC(=O)[C@H](CCCCNC(C)=O)NC(=O)[C@H](CC(=O)O)NC(=O)[C@H](CC(C)C)NC(=O)[C@H]([C@@H](C)CC)NC(=O)[C@H](CCC(=O)O)NC(=O)[C@H](CCC(=O)O)NC(=O)[C@H]([C@@H](C)CC)NC2=O)NC1=O [Compound C217],half-life,[1],31.4 min
"C214 ({DOTA‑PEG4}-CEYDEEFFTALKRLRGGDICYYIKKKFDYLPKLCIEEILDNLGC-NH2; disulfide 1-34, 20-44) [Compound C214]",EC50 (microcurie/milliliter) for Ac-225 radioconjugates,[2],0.014 microcurie/milliliter
C215 (CEYDEEFFTALKRLRGGDICYYIKKKFKKVPKLCIEEILDKLGC) [Compound C215],EC50 (microcurie/milliliter) for Ac-225 radioconjugates,[2],0.086 microcurie/milliliter
same,Thermal stability (% parent remaining),[3],remain stable
enfortumab vedotin,PK DATA (t½ - min),[4],"2,476.8 min"
same,PK DATA (t½),[4],41.3 h
"{DOTA-PEG4′}-CEYDEEFFTALKRLRGGDICYYIQAKFQYLPKLCIEEILDNLGCS-OH (designed binder, disulfide 1-34, 20-44; also: DOTA labeled with lutetium-177) [Lutetium-177-labeled radioconjugate of C117]",Kd,[5],890 pM
